In this assay the target is D(2) dopamine receptor (Homo sapiens, UniProt P14416). In words: ChEBML_61120. An excerpt:
Binding affinity for Dopamine receptor D2 by displacement of [3H]-spiperone

For two molecules, Ki results are on record in BindingDB's records for doi:10.1016/s0960-894x(00)00030-5 (Yoshitomi Pharmaceutical Industries, 2000).

pKi: −log10 of the molar value.

D(2) dopamine receptor, sequence (P14416 whole entry): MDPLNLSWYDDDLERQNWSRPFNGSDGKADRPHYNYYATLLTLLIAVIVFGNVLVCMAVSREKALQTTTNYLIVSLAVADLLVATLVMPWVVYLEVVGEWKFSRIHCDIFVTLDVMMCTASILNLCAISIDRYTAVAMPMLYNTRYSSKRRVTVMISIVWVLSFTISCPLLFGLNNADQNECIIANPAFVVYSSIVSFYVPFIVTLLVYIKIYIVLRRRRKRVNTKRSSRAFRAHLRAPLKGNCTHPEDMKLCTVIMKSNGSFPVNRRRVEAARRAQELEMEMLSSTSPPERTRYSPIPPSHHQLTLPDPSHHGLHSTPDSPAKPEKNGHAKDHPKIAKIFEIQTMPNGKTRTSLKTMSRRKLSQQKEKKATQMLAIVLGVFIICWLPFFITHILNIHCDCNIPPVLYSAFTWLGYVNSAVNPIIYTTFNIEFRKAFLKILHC

Usually pKi stands for the Ki on a negative log10 scale, so that one unit is a factor of ten. Higher therefore signals a small Ki. `CN1CCOc2c(C(=O)NC[C@H]3CCCN3CCc3ccccc3)cc(Cl)cc21` [6-Chloro-4-methyl-3,4-dihydro-2H-benzo[1,4]oxazine-8-carboxylic acid ((R)-1-phenethyl-pyrrolidin-2-ylmethyl)-amide]: the pKi was 7.24.

Molecule `CN1CCOc2c(C(=O)NC[C@@H]3CCCN3CCc3ccccc3)cc(Cl)cc21` [6-Chloro-4-methyl-3,4-dihydro-2H-benzo[1,4]oxazine-8-carboxylic acid ((S)-1-phenethyl-pyrrolidin-2-ylmethyl)-amide] gave a pKi of 6.10.
